Assay [1] relates to Mus musculus. Nature of the assay: Anti-inflammatory activity against MOG35-55-induced experimental autoimmune encephalomyelitis C57BL/6 mouse model assessed as increase in brain IL-4 level at 600 mg/kg/day, ig for 14 days starting from 12th day of immunization by ELISA. The class given is functional, organism-based. As to conditions: time 14.0 day.
For assay [2], the system named is Mus musculus. Nature of the assay: Anti-inflammatory activity against MOG35-55-induced experimental autoimmune encephalomyelitis C57BL/6 mouse model assessed as methylation of CpG sites of CXCL14 gene promoter in brain at 600 mg/kg, ig for 14 days starting from 12th day of immunization by PCR analysis (reference value: 46.5 +/-6%). The class given is functional. The conditions noted are these: time 14 day.

Assay [3] has as its system Mus musculus. The assay is described as follows: Anti-inflammatory activity against MOG35-55-induced experimental autoimmune encephalomyelitis C57BL/6 mouse model assessed as fold change in C1S gene expression in brain at 300 mg/kg/day, ig for 14 days starting from 12th day of immunization by RT-qPCR analysis relative to control. The format is functional. The conditions noted are these: time 14 day. On the technique in general: In qPCR the cycle at which signal appears reflects the starting amount.

In assay [4] the test system is Mus musculus. The assay is described as follows: Anti-inflammatory activity against MOG35-55-induced experimental autoimmune encephalomyelitis C57BL/6 mouse model assessed as methylation of CpG sites of IL17A gene promoter in brain at 600 mg/kg, ig for 14 days starting from 12th day of immunization by PCR analysis (reference value: 58 +/-6%). The format is functional. The conditions noted are these: time 14 day.

The test system of assay [5] is Mus musculus. The assay is described as follows: Anti-inflammatory activity against MOG35-55-induced experimental autoimmune encephalomyelitis C57BL/6 mouse model assessed as fold change in TGFB1 gene expression in brain at 300 mg/kg/day, ig for 14 days starting from 12th day of immunization by RT-qPCR analysis relative to control. The class given is functional. As to conditions: time 14 day.

Assay [6] concerns Mus musculus. The assay is described as follows: Anti-inflammatory activity against MOG35-55-induced experimental autoimmune encephalomyelitis C57BL/6 mouse model assessed as fold change in MMP9 gene expression in brain at 600 mg/kg/day, ig for 14 days starting from 12th day of immunization by RT-qPCR analysis relative to control. The format is functional. As to conditions: time 14 day.

Assay [7] deals with Mus musculus. Nature of the assay: Anti-inflammatory activity against MOG35-55-induced experimental autoimmune encephalomyelitis C57BL/6 mouse model assessed as reduction in serum chemokines level by measuring reduction in IL-3 level at 600 mg/kg/day, ig for 14 days starting from 12th day of immunization by ELISA. The class given is functional, organism-based. As to conditions: time 14.0 day. In general terms: ELISA stands for enzyme-linked immunosorbent assay.

The subject of assay [8] is Mus musculus. Nature of the assay: Anti-inflammatory activity against MOG35-55-induced experimental autoimmune encephalomyelitis C57BL/6 mouse model assessed as fold change in BCL2 gene expression in brain at 600 mg/kg/day, ig for 14 days starting from 12th day of immunization by RT-qPCR analysis relative to control. The format is functional. As to conditions: time 14 day.

The subject of assay [9] is Mus musculus. The assay is described as follows: Anti-inflammatory activity against MOG35-55-induced experimental autoimmune encephalomyelitis C57BL/6 mouse model assessed as fold change in CXCL9 gene expression in brain at 300 mg/kg/day, ig for 14 days starting from 12th day of immunization by RT-qPCR analysis relative to control. The class given is functional. As to conditions: time 14 day.

The test system of assay [10] is Mus musculus. Nature of the assay: Anti-inflammatory activity against MOG35-55-induced experimental autoimmune encephalomyelitis C57BL/6 mouse model assessed as fold change in PLP gene expression in brain at 600 mg/kg/day, ig for 14 days starting from 12th day of immunization by RT-qPCR analysis relative to control. The class given is functional. As to conditions: time 14 day.

In assay [11] the test system is Mus musculus. The assay is described as follows: Anti-inflammatory activity against MOG35-55-induced experimental autoimmune encephalomyelitis C57BL/6 mouse model assessed as fold change in STAT3 gene expression in brain at 600 mg/kg/day, ig for 14 days starting from 12th day of immunization by RT-qPCR analysis relative to control. The format is functional. As to conditions: time 14 day.

The subject of assay [12] is Mus musculus. Nature of the assay: Anti-inflammatory activity against MOG35-55-induced experimental autoimmune encephalomyelitis C57BL/6 mouse model assessed as fold change in NFKB gene expression in brain at 600 mg/kg/day, ig for 14 days starting from 12th day of immunization by RT-qPCR analysis relative to control. The class given is functional. As to conditions: time 14 day.

The test system of assay [13] is Mus musculus. The assay is described as follows: Anti-inflammatory activity against MOG35-55-induced experimental autoimmune encephalomyelitis C57BL/6 mouse model assessed as reduction in EAE symptoms by measuring reduction in paralysis of hind limbs at 300 to 600 mg/kg/day, ig for 14 days starting from 12th day of immunization. The conditions noted are these: dose 300-600 mg/kg/day, time 14.0 day. The class given is functional, organism-based.

For assay [14], the system named is Mus musculus. Nature of the assay: Anti-inflammatory activity against MOG35-55-induced experimental autoimmune encephalomyelitis C57BL/6 mouse model assessed as fold change in GFAP gene expression in brain at 600 mg/kg/day, ig for 14 days starting from 12th day of immunization by RT-qPCR analysis relative to control. The format is functional. The conditions noted are these: time 14 day.

The subject of assay [15] is Mus musculus. The assay is described as follows: Anti-inflammatory activity against MOG35-55-induced experimental autoimmune encephalomyelitis C57BL/6 mouse model assessed as fold change in TNF-alpha gene expression in brain at 0.15 mg/kg/day, ig for 14 days starting from 12th day of immunization by RT-qPCR analysis relative to control. The format is functional. As to conditions: time 14 day.

For assay [16], the system named is Mus musculus. Nature of the assay: Anti-inflammatory activity against MOG35-55-induced experimental autoimmune encephalomyelitis C57BL/6 mouse model assessed as fold change in MMP9 gene expression in brain at 0.3 mg/kg/day, ig for 14 days starting from 12th day of immunization by RT-qPCR analysis relative to control. The format is functional. The conditions noted are these: time 14 day.

The subject of assay [17] is Mus musculus. Nature of the assay: Anti-inflammatory activity against MOG35-55-induced experimental autoimmune encephalomyelitis C57BL/6 mouse model assessed as fold change in BCL2 gene expression in brain at 0.3 mg/kg/day, ig for 14 days starting from 12th day of immunization by RT-qPCR analysis relative to control. The class given is functional. As to conditions: time 14 day.

Assay [18] relates to Mus musculus. Nature of the assay: Anti-inflammatory activity against MOG35-55-induced experimental autoimmune encephalomyelitis C57BL/6 mouse model assessed as fold change in CXCL10 gene expression in brain at 0.3 mg/kg/day, ig for 14 days starting from 12th day of immunization by RT-qPCR analysis relative to control. As to conditions: time 14 day. The class given is functional.

Assay [19] deals with Mus musculus. Nature of the assay: Anti-inflammatory activity against MOG35-55-induced experimental autoimmune encephalomyelitis C57BL/6 mouse model assessed as proportion of brain infiltrating cells expressing CD45+/CD11b/c high surface markers at […]/day, ig for 14 days starting from 12th day of immunization by flow cytometry (reference value: 87.7%). The class given is functional. The conditions noted are these: time 14 day. For orientation: Flow cytometry measures light scatter and fluorescence of single cells or particles in a stream.

Assay [20] has as its system Mus musculus. The assay is described as follows: Anti-inflammatory activity against MOG35-55-induced experimental autoimmune encephalomyelitis C57BL/6 mouse model assessed as methylation of CpG sites of IL17A gene promoter in brain at […], ig for 14 days starting from 12th day of immunization by PCR analysis (reference value: 58 +/-6%). As to conditions: time 14 day. The class given is functional.

For assay [21], the system named is Mus musculus. Nature of the assay: Anti-inflammatory activity against MOG35-55-induced experimental autoimmune encephalomyelitis C57BL/6 mouse model assessed as fold change in STAT3 gene expression in brain at 0.3 mg/kg/day, ig for 14 days starting from 12th day of immunization by RT-qPCR analysis relative to control. The format is functional. As to conditions: time 14 day.

Assay [22] relates to Mus musculus. The assay is described as follows: Anti-inflammatory activity against MOG35-55-induced experimental autoimmune encephalomyelitis C57BL/6 mouse model assessed as fold change in GFAP gene expression in brain at 0.3 mg/kg/day, ig for 14 days starting from 12th day of immunization by RT-qPCR analysis relative to control. The class given is functional. As to conditions: time 14 day.

Assay [23] concerns Mus musculus. The assay is described as follows: Anti-inflammatory activity against MOG35-55-induced experimental autoimmune encephalomyelitis C57BL/6 mouse model assessed as fold change in IL6 gene expression in brain at 0.15 mg/kg/day, ig for 14 days starting from 12th day of immunization by RT-qPCR analysis relative to control. The class given is functional. The conditions noted are these: time 14 day.

The structures appear in SMILES notation. The source made the active and inactive calls. The calls are words filed in the database; no cut-off is given here.

Results on two compounds are retold here after ChEMBL document CHEMBL5226375, “Synthesis and Comprehensive in Vivo Activity Profiling of Olean-12-en-28-ol, 3β-Pentacosanoate in Experimental Autoimmune Encephalomyelitis: A Natural Remyelinating and Anti-Inflammatory Agent” (J Nat Prod, 2023).

Take `CCCCCCCCCCCCCCCCCCCCCCCCC(=O)O[C@H]1CC[C@]2(C)[C@H]3CC=C4[C@@H]5CC(C)(C)CC[C@]5(CO)CC[C@@]4(C)[C@]3(C)CC[C@H]2C1(C)C`: the result in the assay on Mus musculus [1], in the assay on Mus musculus [7] and in the assay with Mus musculus [13] was Active. The Activity is 65.3% in the assay with Mus musculus [2] and 68.3% in the assay with Mus musculus [4]. Also, the “fold change (FC)” value in the assay with Mus musculus [3] is listed as 1.63; in the assay with Mus musculus [5], -1.51; in the assay with Mus musculus [6], 2.8; with Mus musculus [8], 1.68; in the assay with Mus musculus [9], 1.63; in the assay on Mus musculus [10] it was 1.14. Further, the results for the “fold change (FC)” value with Mus musculus [11], in the assay with Mus musculus [12] and in the assay with Mus musculus [14] were 1.32, 1.46 and 1.79, respectively.
`CCCCCCCCc1ccc(CCC(N)(CO)CO)cc1` [FINGOLIMOD]: the “fold change (FC)” value was determined as 2.21 in the assay with Mus musculus [15]; 4.44 in the assay on Mus musculus [16]; 2.12 in the assay on Mus musculus [17]; 2.17 in the assay with Mus musculus [18]; 1.87 with Mus musculus [21]; 1.92 in the assay with Mus musculus [22]. Further, in the assay on Mus musculus [23], the “fold change (FC)” value was determined as 4.34. Besides, the Activity in the assay on Mus musculus [19] is on record as 46.6%; in the assay with Mus musculus [20] it was 58.9%.
